“Also recorded” adds a separate entry of the source. Where two headings read alike, the source gives them in different places.
How the values were obtained:
[1] = system: homozygous scn1Lab−/− mutants; assay type: in vivo, Danio rerio; settings: for locomotor-reducing activity of functional analogs: at MTC, in most cases observed after short and long treatment; for activity in the Zebrafish model of epilepsy: following both acute and chronic application
Experimental: (§1) Zebrafish embryos (Danio rerio) heterozygous for the scn1Lab mutation (scn1Lab+/−) were backcrossed with Tupfel longfin wildtype (WT scn1Lab+/+). Adult zebrafish were housed at 28.0° C., on a 14/10 hour light/dark cycle under standard aquaculture conditions. Fertilized eggs were collected via natural spawning. Anaesthetized fish (tricaine 0.02%) were fin-clipped and genotyped by PCR. After genotyping, samples were purified (MinElute PCR Purification Kit) and sequenced by LGC Genomics. Age-matched Tupfel longfin wildtype larvae were used as control group (WT scn1Lab+/+).
(§2) To evaluate the locomotor activity of homozygous scn1Lab−/− mutants and control WT scn1Lab+/+, zebrafish larvae were placed in a 96-well plate in 100 μL of embryo medium from 4 to 8 dpf. Each day the larvae were tracked in an automated tracking device (ZebraBox™ apparatus; Viewpoint, Lyon, France) for 10 min after 30 min habituation (100-second integration interval). All recordings were performed at the same time during daytime period. The total distance in large movements was recorded and quantified using ZebraLab™ software (Viewpoint, Lyon, France). Data were pooled together from at least three independent experiments with at least 24 larvae per condition.
(§3) Scn1Lab−/− mutants and WT scn1Lab+/+ larvae were arrayed in the same plate and treated at 6 days post fertilization (dpf) with fenfluramine (25 μM), functional analogs (at their MTC) or VHC in individual wells of a 96-well plate. After incubation at 28° C. on a 14/10 hour light/dark cycle and 30-min chamber habituation 6 and 7 dpf larvae were tracked for locomotor activity for 10 min (100-second integration interval) under dark conditions. An incubation time of 1.5 hours is further referred as short treatment (6 dpf). Furthermore these larvae were analyzed after more than 22 hours incubation (7 dpf), i.e. long treatment. The total locomotor activity was quantified using the parameter lardist and plotted in cm. Data were pooled together from two (5-HT1B-, 5-HT1F-, 5-HT3-, 5-HT4-, 5-HT5A-, 5-HT6-agonist and all antagonists except 5-HT1B- and 5-HT7-antagonists) or three (fenfluramine, 5-HT1A-, 5-HT1D-, 5-HT1E-, 5-HT2A-, 5-HT2B-, and 5-HT2C-agonist) independent experiments with at least 9 larvae per treatment condition.

5-HT2C receptor = molecular target: T1, 5-HT2C receptor (Homo sapiens, UniProt P28335); settings: cited from earlier work
T1 sequence (P28335 33-458): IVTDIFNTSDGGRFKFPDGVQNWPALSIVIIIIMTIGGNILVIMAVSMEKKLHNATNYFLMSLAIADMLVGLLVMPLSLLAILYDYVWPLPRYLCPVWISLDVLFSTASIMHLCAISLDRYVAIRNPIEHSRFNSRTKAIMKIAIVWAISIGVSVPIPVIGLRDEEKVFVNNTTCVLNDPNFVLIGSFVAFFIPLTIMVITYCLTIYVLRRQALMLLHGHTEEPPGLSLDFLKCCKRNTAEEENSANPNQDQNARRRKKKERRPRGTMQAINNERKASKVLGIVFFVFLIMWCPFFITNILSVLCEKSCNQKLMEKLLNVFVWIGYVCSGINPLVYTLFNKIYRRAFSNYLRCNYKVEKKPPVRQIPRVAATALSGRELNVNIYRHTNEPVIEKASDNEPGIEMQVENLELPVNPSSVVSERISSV

[2] = system: homozygous scn1Lab−/− mutants; assay type: in vivo, Danio rerio; settings: for reduction of epileptiform activity (in words, compared with fenfluramine): long treatment at MTC (5-HT2B-agonist 3.125 μM), at least frequency and mean cumulative duration
Experimental: Epileptiform activity was measured by open-field recordings in the zebrafish larval forebrain at 7 dpf. Homozygous scn1Lab−/− mutants and control WT scn1Lab+/+ were embedded in 2% low-melting-point agarose (Invitrogen) to position a glass electrode into the forebrain. […] Single recordings were performed for 10 min. […] Spontaneous epileptiform events were taken into account when the amplitude exceeded three times the background noise and lasted longer than 50 milliseconds (ms).
Epileptiform activity was measured by open-field recordings in the zebrafish larval forebrain at 7 dpf, as described above. […] Recordings of 7 dpf larvae, from at least 8 scn1Lab−/− mutant larvae were taken per experimental condition. […] Electrographic recordings were quantified for the different treatment conditions.

Dravet syndrome patients [3] = settings: long term treatment with fenfluramine 0.12-0.90 mg/kg/day; Ceulemans et al. 2012; cited from earlier work
Dravet syndrome patients [4] = settings: Chiron et al. 2011; cited from earlier work
WT scn1Lab+/+ larvae = experiment: Locomotor activity of age-matched wildtype zebrafish larvae; assay type: in vivo, Danio rerio; settings: 'with exception of' means the compound did decrease wildtype activity
Experimental: as §1, §2
as §3, with “Data were pooled together from two (5-HT1B-, 5-HT1F-, 5-HT3-, 5-HT4-, 5-HT5A-, 5-HT6-agonist and all antagonists except 5-HT1B- and 5-HT7-antagonists) or three (fenfluramine, 5-HT1A-, 5-HT1D-, 5-HT1E-, 5-HT2A-, 5-HT2B-, and 5-HT2C-agonist) independent experiments with at least 9 larvae per treatment condition.” left out

scn1Lab−/− larvae = experiment: Fenfluramine combined with 5-HT subtype antagonists, locomotor activity of scn1Lab-/- larvae; assay type: in vivo, Danio rerio; settings: antagonist plus fenfluramine
Experimental: as §3
No highly specific 5-HT1E-antagonist is currently available so it was impossible to explore this 5-HTsubtype receptor in the current assay (Leung, 2009).

[5] = long treatment, fenfluramine 25 μM, 7 dpf

In the case of `C[C@H]1CNCCc2ccc(Cl)cc21.Cl` [lorcaserin, (1R)-8-chloro-1-methyl-2,3,4,5-tetrahydro-1H-3-benzazepine], the “locomotor-reducing activity of functional analogs” value [1] is listed as “locomotor-reducing activity”, the “activity in the Zebrafish model of epilepsy” value (“activity … of epilepsy” for short) [1] is listed as “high levels of activity” and the “affinity for the 5-HT2C receptor vs. the 5-HT2B” value (5-HT2C receptor) is listed as 100 ×. For the same compound, the “reduction of epileptiform activity (in words, compared with fenfluramine)” value (shortened to “reduction of epileptiform activity”) ([2]; 7 dpf) was “comparable effects”.

For `CCNC(C)Cc1cccc(C(F)(F)F)c1` (centres unmarked) [fenfluramine], the patients seizure-free (Dravet syndrome patients [3]) is listed as 70%, the “activity … of epilepsy” value [1] is listed as “high levels of activity” and the “locomotor activity after long treatment” value ([1]; long treatment (22 h), fenfluramine 25 μM, 7 dpf, p<0.0001) is listed as “lowers locomotor activity; also recorded: significantly decreased”. The “reduction of epileptiform activity” value ([2]; 7 dpf) was “anti-epileptiform activity”, the “frequency of epileptiform events” value [2, 5] was 1.7±0.4046 events/10-min recording and the “mean cumulative duration of epileptiform events” value [2, 5] was 200.8±50.38 ms/10-min recording. The “mean duration of epileptiform events” value [2, 5] was 85.11±18.28 ms/10-min recording.

For `NC(=O)N1c2ccccc2C=Cc2ccccc21` [carbamazepine], the “patients with worsening of symptoms” value (Dravet syndrome patients [4]) is given as about 60%.

In the case of `Nc1nnc(-c2cccc(Cl)c2Cl)c(N)n1` [lamotrigine], the “patients with worsening of symptoms” value (Dravet syndrome patients [4]) is listed as “up to 80%”.

In the case of `COc1ccc(CNC(=O)/C=C/c2ccc3[nH]cc(CCN(C)C)c3c2)cc1` [5-HT1D-agonist, 3-[3-(2-Dimethylaminoethyl)-1H-indol-5-yl]-N-(4-methoxybenzyl)acrylamide], the “locomotor-reducing activity of functional analogs” value [1] is reported as “locomotor-reducing activity”, the “activity … of epilepsy” value [1] is reported as “high levels of activity” and the “locomotor activity in wildtype larvae” value (WT scn1Lab+/+ larvae) is reported as “did not decrease the locomotor activity”. For the same compound, the “reduction of epileptiform activity” value ([2]; 7 dpf) was “comparable effects”.

For `C=CC(N)CCC(=O)O` (centres unmarked) [vigabatrin], the “patients with worsening of symptoms” value (Dravet syndrome patients [4]) is listed as about 60%.

With `CN1CCC(c2c[nH]c3ccc(O)cc23)CC1` [5-HT1E-agonist, 1H-Indol-5-ol, 3-(1-methyl-4-piperidinyl)-] the “locomotor-reducing activity of functional analogs” value [1] was “locomotor-reducing activity”, the “locomotor activity in wildtype larvae” value (WT scn1Lab+/+ larvae) was “did not decrease the locomotor activity” and the “reduction of epileptiform activity” value ([2]; 7 dpf) was “not able to reduce epileptiform activity”.

In the case of `Cc1nn(C)c(C)c1-c1cccc2c1CC[C@H](N(C)C)C2` [5-HT7-agonist, (2S)-(+)-5-(1,3,5-Trimethylpyrazol-4-yl)-2-(dimethylamino)tetralin], the “locomotor-reducing activity of functional analogs” value [1] is reported as “locomotor-reducing activity” and the “activity … of epilepsy” value [1] is reported as “high levels of activity”.

In the case of `CC(N)Cc1c[nH]c2ccc(OCc3cccs3)cc12` (centres unmarked) [5-HT2B agonist], the “activity … of epilepsy” value [1] is reported as “did not show any activity”.

With `O=C(c1ccc(F)cc1)C1CCN(CCn2c(=O)[nH]c3ccccc3c2=O)CC1` [5-HT2A-antagonist, ketaserine] the “counteraction of the fenfluramine-elicited decrease in locomotor activity, long treatment” value (scn1Lab−/− larvae; long treatment, p<0.05) was “not after a long treatment” and the “effect of antagonist on the fenfluramine-elicited decrease in large movements” value (scn1Lab−/− larvae; treatment time not stated) was “not seen”.

For `CN1C[C@H](C(=O)N[C@]2(C)O[C@@]3(O)[C@@H]4CCCN4C(=O)[C@H](Cc4ccccc4)N3C2=O)C=C2c3cccc4[nH]cc(c34)C[C@H]21` [ergotamine, (6aR,9R)—N-((2R,5S,10aS,10bS)-5-benzyl-10b-hydroxy-2-methyl-3,6-dioxooctahydro-2H-oxazolo[3,2-a]pyrrolo[2,1-c]pyrazin-2-yl)-7-methyl-4,6,6a,7,8,9-hexahydroindolo[4,3-fg] quinoline-9-carboxamide], the “locomotor-reducing activity of functional analogs” value [1] was “interesting activity”, the “locomotor-reducing activity of functional analogs” value ([1]; listed as 5-HT5A-agonist) was “locomotor-reducing activity” and the “activity … of epilepsy” value [1] was “high levels of activity”. For the same compound, the “locomotor activity in wildtype larvae” value (WT scn1Lab+/+ larvae) was “did not decrease the locomotor activity”.

With `O=C1Nc2ccc(Cl)cc2[C@@](C#CC2CC2)(C(F)(F)F)O1` [efavirenz, (4S)-6-chloro-4-(2-cyclopropylethynyl)-4-(trifluoromethyl)-1H-3,1-benzoxazin-2-one] the “inhibition of locomotor activity in mutant fish embryos (Example 2)” value ([1]; tested at MTC) was “potent inhibitors” and the “inhibition of epileptiform activity in mutant fish embryos (Example 2)” value ([2]; tested at MTC) was “potent inhibitors”.

Source: US20180325909A1, “COMBINATION TREATMENT OF SPECIFIC FORMS OF EPILEPSY” (ZOGENIX INTERNATIONAL LIMITED, priority 2015, published 2018)
